In US20230181553A1, “COMPOSITION FOR HAIR IMPROVEMENT” (Dr. Cherry Inc., priority 2020, published 2023):

How the values were obtained:
scalp = experiment: Change in hair thickness after application of pioglitazone suspension to half side of the scalp with electroporation; format: in vivo, human
Method: As pioglitazone, a 15 mg pioglitazone tablet “NP” was used. One pioglitazone tablet was ground in a mortar, and the resultant was suspended in 3 mL of water for injection PL “FUSO” for use. Subjects were three female patients (patients). In each of the patients, lines were extended from both outer canthi toward the head, two points on these lines crossing a line extended between the both ears through the vertex were tattooed with an India ink, and a portion around the marked center was photographed under the same conditions. A suspension of pioglitazone was applied to the entire of half side of the scalp. In order to increase penetration, pioglitazone was caused to penetrate through the skin with META-TDS, Electroporation Machine (CTP-802, Grand Aespio Inc., Korea) at an output of 3 V/6 mA {actually measured value}. This treatment was performed at a frequency of once every two weeks 12 times (namely, for 6 months). The test sites were away from the midline of the head by 51 mm on average on both left and right sides. After 6 months from the start of the treatment (after performing the treatment 12 times), Dermo Prime, dpharris (CHOWIS, Korea) was used to import data of two images of each test site into a computer as digital images, and in each image, three hairs having the largest thickness (6 hairs in two images of each test site) were selected to automatically measure the thickness. An average value of the tested values (hair thickness: mm) was used for graphing. Specifically, assuming that the thickness before the treatment was 100, the thickness after the treatment was indicated as a rate. Regarding a patient group in which the treatment was performed on a half side, a difference between before and after the treatment and a difference between the left and right-side portions were compared.

hair cuticle = experiment: Hair quality evaluation of hair cuticle by scanning electron microscope; format: in vivo, human
Source text: The hair of the group administered with PG (administered twice a month) of Example 3 was collected, and in consideration of the growing rate (15 mm/month) of the hair of the patient, a portion corresponding to a period 2 months to 3 months (about 2.5 months) before the treatment and a portion corresponding to a period 4 months to 5 months (about 4.5 months) after starting the treatment were collected to be hermetically stored respectively in Ziploc(R). Thereafter, hair of a test site was adhesively fixed on a fixing plate with a resin. The resultant was hermetically stored, and on test day, was subjected to carbon fixation, and a state of hair cuticle was observed by an ordinary method with a scanning electron microscope on the same day. As a negative control, hair of the same patient in a portion not treated (untreated in the half side treatment) was used. Then, a portion of the hair newly grown (on the root side) and an existing portion (on the tip side) were compared with each other. A representative example is illustrated in FIG. 2. The same evaluation was performed on a larger number of patients (three patients[…]) (15 mg of PG, administered twice a month, administration 12 times in total, 6 months). The evaluation was performed 20 days after the final administration based on an electron microscope image in accordance with the following rating. The evaluation was performed by 6 doctors. An average of ratings was obtained. 5: Cuticle is aligned, and is not rough at all. 4: Cuticle is aligned than average, but is slightly rough. 3: Cuticle is aligned averagely. 2: Cuticle is rough than average, and is slightly peeled. […] Cuticle is rough as a whole, and is peeled as a whole.

[1] = treated side relative to untreated side

In the case of `CCc1ccc(CCOc2ccc(CC3SC(=O)NC3=O)cc2)nc1` (centres unmarked) [pioglitazone], the “hair thickness on treated side compared with negative control” value (scalp; 15 mg tablet suspended in 3 mL water, half side of scalp, once every two weeks 12 times, 1 month to 6 months after treatment, three female patients) is reported as “increased in the thickness”, the “change rate of hair thickness on treated side vs change rate in negative control” value (scalp; half side treatment, 6 months, FIG. 1 lower panel) is reported as “higher than the change rate obtained in the negative control” and the “growing rate of hair (particularly anagen-stage hair)” value (scalp; modification of the scalp with pioglitazone) is reported as “improvement of a growing rate of hair”. The “hair quality rating, Root” value (hair cuticle; Treated Side, rating 1-5 (5: cuticle aligned, not rough at all), average of 6 doctors, three patients, 15 mg PG twice a month, 12 times, 20 days after final administration) was 3.7, the “hair quality rating, Tip” value (hair cuticle; Treated Side, rating 1-5, average of 6 doctors, three patients, 15 mg PG twice a month, 12 times, 20 days after final administration) was 2.6 and the “state of hair cuticle, newly grown portion (root side) vs tip side” value (hair cuticle; treated hair, PG twice a month, representative example FIG. 2) was “the hair quality was obviously improved”. The “Degree of Improvement, Root” value (hair cuticle; [1]) was 1.12 and the “Degree of Improvement, Tip” value (hair cuticle; [1]) was 1.0.
